Laboratory results published in US20240277730A1, “SUPPRESSION OF COVID-19 REPLICATION BY COVID-19 ENTRY INHIBITORS” (Board of Regents of the University of Nebraska, priority 2021, published 2024).
pIC50: −log10 of the molar value. Values joined by “and” are separate entries in the source; they are usually repeats but may differ in a detail not shown here. Equal values may be shown once. “Also recorded” adds a separate entry of the source.

Assays:
[1] = system: SARS-COV-2; format: cell-based
[2] = MTT cell viability assay, Calu-3; format: cell-based; settings: human, Calu-3 cells
Method: (§1) The MTT cell viability assay of the preferred embodiment utilized HEK-293T-hACE2. UNCN1T. Vero-STAT1 knockout, and Calu-3 cells seeded at the density of 20,000 cells/well in a 96-well plate containing 100 μl complete media specific for each cell type. Cells were incubated for 12 h at 37° C., in a humidified 5% CO2 incubator for adherence. After 12-h incubation, the media was replaced with fresh media, and HEK-293T-hACE2 cells were treated with the five compounds at concentrations ranging between 0.001 to 100 μM. The Calu-3. […] Untreated cells were considered a negative control, and DMSO treated cells were considered vehicle controls. After the treatment, cells were incubated at 37° C., in humidified 5% CO2 incubator. Seventy-two hour posttreatment. 20 μl of MTT substrate (5 mg/ml) was added to each well and incubated for 4 additional hours at 37° C., in the dark. Then the culture media was carefully removed, and blue formazan crystals were dissolved in 200 μl of DMSO, and the purple color was read at 595 nm with a reference filter of 620 nm.

[3] = MTT cell viability assay, HEK293T-hACE2; format: cell-based; settings: human, HEK293T-hACE2 cells
Method: as §1

[4] = system: pseudotyped lentiviral particles expressing Spike glycoprotein of SARS-COV-2; experiment: microbe, parasite or virus in culture; format: cell-based
[5] = system: SARS-COV-2; format: cell-based; remark: listed apart in the source
[6] = in vitro; format: cell-based; settings: African green monkey, Vero-STAT1 knockout cells, MTT
Method: as §1

[7] = MTT cell viability assay, UNCN1T; format: cell-based; settings: human, UNCN1T cells
Method: as §1

[8] = molecular target: Hu-1 S-RBD (Severe acute respiratory syndrome coronavirus 2, UniProt P0DTC2); experiment: microscale thermophoresis (MST), S-RBD alone; format: binding, SARS-COV-2
[9] = system: SARS-COV-2; experiment: antiviral activity against live SARS-COV-2 in UNCN1T cells (RT-qPCR); format: cell-based; settings: read-out: IC50, inhibition of SARS-COV-2 replication
[10] = system: SARS-COV-2; experiment: microbe, parasite or virus in culture; format: cell-based; settings: read-out: IC50, inhibition of SARS-COV-2 replication
[11] = molecular target: ACE2: SARS-COV-2 Spike RBD (Homo sapiens, UniProt Q9BYF1); experiment: ACE2: SARS-COV-2 Spike RBD inhibitor screening assay (ELISA kit); parameters: species or system SARS-COV-2 / human; settings: tested 0.25 to 5 μM in triplicate; read-out: IC50, inhibition of binding of SARS-COV-2 Spike RBD to ACE2
[12] = Severe acute respiratory syndrome coronavirus 2

Chain of ACE2: SARS-COV-2 Spike RBD (Q9BYF1 18-740): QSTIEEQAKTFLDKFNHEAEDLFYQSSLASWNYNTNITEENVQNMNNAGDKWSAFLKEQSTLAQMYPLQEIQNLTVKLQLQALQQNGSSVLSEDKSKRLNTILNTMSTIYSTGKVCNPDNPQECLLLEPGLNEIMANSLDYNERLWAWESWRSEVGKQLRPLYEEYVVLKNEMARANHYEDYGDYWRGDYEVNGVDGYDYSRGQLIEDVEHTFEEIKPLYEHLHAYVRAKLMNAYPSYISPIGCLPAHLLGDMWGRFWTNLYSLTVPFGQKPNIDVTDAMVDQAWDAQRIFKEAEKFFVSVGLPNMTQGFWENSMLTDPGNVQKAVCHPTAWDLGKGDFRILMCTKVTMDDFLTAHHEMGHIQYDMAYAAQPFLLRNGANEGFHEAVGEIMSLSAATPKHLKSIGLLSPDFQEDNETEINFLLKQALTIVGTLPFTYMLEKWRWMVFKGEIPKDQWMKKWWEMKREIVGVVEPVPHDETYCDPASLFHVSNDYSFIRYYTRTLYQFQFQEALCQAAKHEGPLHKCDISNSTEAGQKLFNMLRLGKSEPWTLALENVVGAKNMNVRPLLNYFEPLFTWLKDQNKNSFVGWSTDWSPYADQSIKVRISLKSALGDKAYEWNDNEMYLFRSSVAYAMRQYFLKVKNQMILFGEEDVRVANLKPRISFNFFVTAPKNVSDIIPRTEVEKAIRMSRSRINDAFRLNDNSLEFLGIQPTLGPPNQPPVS

Row | SMILES | CC50 at 72 h [2] | CC50 at 72 h [3] | pseudotype viral entry inhibition [4] | SARS-COV-2 infection compared with vehicle controls [5] | reduction in SARS-COV-2 infectivity [5] | CC50 at 72 h [6] | CC50 at 72 h [7] | pIC50 [11] | also measured
1 | CCC(CC)COC(=O)[C@H](C)N[P@](=O)(OC[C@H]1O[C@@](C#N)(c2ccc3c(N)ncnn23)[C@H](O)[C@@H]1O)Oc1ccccc1 [RDV, remdesivir] | – | – | – | – | – | – | – | – | reduction in dosages in RDV/formula (IIa) combination [1]: ≥ 2.3 fold
2 | O=C1Nc2cc(C(F)(F)F)ccc2Oc2ccsc21 [formula (IIa), 7-(trifluoromethyl)benzo[b]-thieno[2,3-f][1,4]oxazepin-10(9H)-one] | > 100 µM | > 100 µM | significant and robust viral entry inhibition | no significant difference | ~40% | 7.13 µM | > 100 µM | – | pIC50 ([4]; Severe acute respiratory syndrome coronavirus 2, 48 h, read-out: IC50, inhibition of entry of pseudotyped lentiviral particles): 6.08; binding to S-RBD alone [8]: does not binding; also recorded: does not bind
3 | CN1C(=O)c2ccccc2[S+]([O-])c2cc([N+](=O)[O-])ccc2S1(=O)=O (stereo not shown) [formula (Ia), 6-methyl-2-nitrodibenzo[d,g]-[1,6,2]dithiazocin-7(6H)-one 5,5, 12-trioxide] | > 100 µM | > 100 µM | low level of viral entry inhibition | no significant difference | ~40% | 6.21 µM | > 100 µM | > 6.60 and ≤ 6.60 | pIC50 [9, 12]: 6.17; pIC50 [9]: 5.94; pIC50 [10, 12]: 5.27; pIC50 [10]: 5.53
4 | CCn1c(SCC(=O)N2CCCc3ccccc32)nnc1-c1cccs1 [formula (V), 1-(3,4-dihydroquinolin-1(2H)-yl)-2-((4-ethyl-5-(thiophen-2-yl)-4H-1,2,4-triazol-3-yl)lhio)elhanone] | – | > 100 µM | – | – | – | – | – | 5.72 | –
5 | OC(CNCCNc1ncccc1C(F)(F)F)Cn1ccc2ccccc21 (stereo not shown) [formula (VI), 1-(1H-indol-1-yl)-3-((2-((3-(trifluoromethyl)pyridin-2-yl)amino)ethyl)amino)-propan-2-ol] | – | > 100 µM | – | – | – | – | – | < 5.30 | –
6 | CN(C)/C=C1\N=C(c2cccnc2Oc2ccc(Cl)cc2)OC1=O [formula (VII), (Z)-2-(2-(4-chlorophenoxy)-pyridin-3-yl)-4-((dimethyl-amino)methylene)oxazol-5(4H)-one] | – | > 100 µM | – | – | – | – | – | < 5.30 | –
